Among the data in ChEMBL document CHEMBL5543126, “Combinatorial Ubiquitination REal-time PROteolysis (CURE-PROs): A Modular Platform for Generating Reversible, Self-Assembling Bifunctional Targeted Degraders” (J Med Chem, 2024) are Activity and Tmax values, retold here.

The source made the active and inactive calls. The rule behind the calls is not given here.

What all share (assay type): cell-based
Experiment [1] addresses T1, von Hippel-Lindau disease tumor suppressor/Bromodomain-containing protein 4 (Homo sapiens, UniProt O60885+P40337). The experiment can be described thus: PROTAC activity at BRD4/VHL in human MCF7 cells assessed as induction of BRD4 degradation by measuring residual activity at 100 nM incubated for 24 hrs in presence of 1 uM BRD4 based ligand ((4S)-6-(4-chlorophenyl)-4-(2-(ethylamino)-2-oxoethyl)-1-methyl4Hbenzo[f][1,2,4]triazolo [4,3-a][1,4]diazepin-8-yl)boronic acid by Western blot based Combinatorial Ubiquitination Real-time PROteolysis analysis.

Experiment [2] has as its target T1, von Hippel-Lindau disease tumor suppressor/Bromodomain-containing protein 4. Nature of the experiment: PROTAC activity at VHL/BRD4 in human MCF7 cells assessed as induction of BRD4 degradation at 10 uM incubated for 24 hrs in presence of BRD4 ligand based ((4S)-6-(4-chlorophenyl)-4-(2-(ethylamino)-2-oxoethyl)-1-methyl4Hbenzo[f][1,2,4]triazolo [4,3-a][1,4]diazepin-8-yl)boronic acid by Western blot based Combinatorial Ubiquitination Real-time PROteolysis analysis.

For experiment [3] the target is unchanged. Nature of the experiment: PROTAC activity at VHL/BRD4 in human MCF7 cells assessed as induction of BRD4 degradation at 10 uM measured at 4 hrs in presence of BRD4 based ligand ((4S)-6-(4-chlorophenyl)-4-(2-(ethylamino)-2-oxoethyl)-1-methyl4Hbenzo[f][1,2,4]triazolo [4,3-a][1,4]diazepin-8-yl)boronic acid by Western blot based Combinatorial Ubiquitination Real-time PROteolysis analysis. For orientation: In western blotting, separated proteins are transferred to a membrane and probed.

Experiment [4] has the same target. The experiment can be described thus: PROTAC activity at BRD4/VHL in human MCF7 cells assessed as induction of BRD4 degradation by measuring residual activity at 30 nM incubated for 24 hrs in presence of 1 uM BRD4 based ligand ((4S)-6-(4-chlorophenyl)-4-(2-(ethylamino)-2-oxoethyl)-1-methyl4Hbenzo[f][1,2,4]triazolo [4,3-a][1,4]diazepin-8-yl)boronic acid by Western blot based Combinatorial Ubiquitination Real-time PROteolysis analysis.

For experiment [5] the target is unchanged. The experiment can be described thus: PROTAC activity at BRD4/VHL in human MCF7 cells assessed as induction of BRD4 degradation by measuring residual activity at 3 uM incubated for 24 hrs in presence of 10 uM BRD4 based ligand ((4S)-6-(4-chlorophenyl)-4-(2-(ethylamino)-2-oxoethyl)-1-methyl4Hbenzo[f][1,2,4]triazolo [4,3-a][1,4]diazepin-8-yl)boronic acid by Western blot based Combinatorial Ubiquitination Real-time PROteolysis analysis.

For experiment [6] the target is unchanged. The experiment can be described thus: PROTAC activity at VHL/BRD4 in HEK293 cells assessed as induction of BRD4 degradation by measuring Tmax at 3 uM measured every 15 mins for 24 hrs in presence of BRD4 based ligand ((4S)-6-(4-chlorophenyl)-4-(2-(ethylamino)-2-oxoethyl)-1-methyl4Hbenzo[f][1,2,4]triazolo [4,3-a][1,4]diazepin-8-yl)boronic acid by HiBiT based Combinatorial Ubiquitination Real-time PROteolysis analysis. (HiBiT is a short tag that completes a luciferase, so light tracks the accessible tagged protein.)

The target in experiment [7] is T2, Protein cereblon/Bromodomain-containing protein 4 (Homo sapiens) (UniProt O60885+Q96SW2). Nature of the experiment: PROTAC activity at BRD4/CRBN in human HeLa cells assessed as induction of BRD4 degradation at 10 uM incubated for 24 hrs in presence of CRBN based ligand N-((2-(2,6-dioxopiperidin-3-yl)-1,3-dioxoisoindolin-4-yl)methyl)-3,4-dihydroxybenzamide by Western blot analysis based Combinatorial Ubiquitination Real-time PROteolysis analysis.
T2 sequence (Q96SW2 whole entry, looked up, other chains not shown): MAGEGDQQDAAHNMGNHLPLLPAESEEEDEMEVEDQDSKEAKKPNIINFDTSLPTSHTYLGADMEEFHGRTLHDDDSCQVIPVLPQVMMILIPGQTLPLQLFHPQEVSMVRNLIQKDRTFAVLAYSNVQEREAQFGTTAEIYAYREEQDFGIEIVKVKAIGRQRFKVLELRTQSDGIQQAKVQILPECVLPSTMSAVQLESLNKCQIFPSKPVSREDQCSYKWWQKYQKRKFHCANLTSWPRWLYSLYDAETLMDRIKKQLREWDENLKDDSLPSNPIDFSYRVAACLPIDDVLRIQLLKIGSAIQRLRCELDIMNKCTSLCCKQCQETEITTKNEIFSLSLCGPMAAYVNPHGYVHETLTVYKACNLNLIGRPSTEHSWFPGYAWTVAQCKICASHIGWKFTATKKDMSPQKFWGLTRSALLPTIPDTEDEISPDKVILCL

The target in experiment [8] is T1, von Hippel-Lindau disease tumor suppressor/Bromodomain-containing protein 4. The experiment can be described thus: PROTAC activity at VHL/BRD4 in HEK293 cells assessed as induction of BRD4 degradation by measuring Tmax at 0.3 uM measured every 15 mins for 24 hrs in presence of VHL based ligand (2S,4R)-1-((S)-2-(2,3-dihydroxybenzamido)-3,3-dimethylbutanoyl)-4-hydroxy-N-(4-(4-methylthiazol-5-yl)benzyl)pyrrolidine-2-carboxamide by HiBiT based Combinatorial Ubiquitination Real-time PROteolysis analysis.

Experiment [9] has the same target. The experiment can be described thus: PROTAC activity at BRD4/VHL in human MCF7 cells assessed as induction of BRD4 degradation by measuring residual activity at 10 uM incubated for 24 hrs in presence of VHL based ligand (2S,4R)-1-((S)-2-(2,3-dihydroxybenzamido)-3,3-dimethylbutanoyl)-4-hydroxy-N-(4-(4-methylthiazol-5-yl)benzyl)pyrrolidine-2-carboxamide by Western blot based Combinatorial Ubiquitination Real-time PROteolysis analysis.

The target is the same in experiment [10]. Nature of the experiment: PROTAC activity at BRD4/VHL in human MCF7 cells assessed as induction of BRD4 degradation by measuring residual activity at 10 uM incubated for 24 hrs in presence of 100 nM VHL based ligand (2S,4R)-1-((S)-2-(2,3-dihydroxybenzamido)-3,3-dimethylbutanoyl)-4-hydroxy-N-(4-(4-methylthiazol-5-yl)benzyl)pyrrolidine-2-carboxamide by Western blot based Combinatorial Ubiquitination Real-time PROteolysis analysis.

Experiment [11] shares this target. The experiment can be described thus: PROTAC activity at BRD4/VHL in human MCF7 cells assessed as induction of BRD4 degradation by measuring residual activity at 300 nM incubated for 24 hrs in presence of 3 uM VHL based ligand (2S,4R)-1-((S)-2-(2,3-dihydroxybenzamido)-3,3-dimethylbutanoyl)-4-hydroxy-N-(4-(4-methylthiazol-5-yl)benzyl)pyrrolidine-2-carboxamide by Western blot based Combinatorial Ubiquitination Real-time PROteolysis analysis.

Experiment [12] shares this target. Nature of the experiment: PROTAC activity at BRD4/VHL in human MCF7 cells assessed as induction of BRD4 degradation by measuring residual activity at 30 nM incubated for 24 hrs in presence of 1 uM VHL based ligand (2S,4R)-1-((S)-2-(2,3-dihydroxybenzamido)-3,3-dimethylbutanoyl)-4-hydroxy-N-(4-(4-methylthiazol-5-yl)benzyl)pyrrolidine-2-carboxamide by Western blot based Combinatorial Ubiquitination Real-time PROteolysis analysis.

Experiment [13] has the same target. The experiment can be described thus: PROTAC activity at BRD4/VHL in human MCF7 cells assessed as induction of BRD4 degradation by measuring residual activity at 30 nM incubated for 24 hrs in presence of VHL based ligand (2S,4R)-1-((S)-2-(2,3-dihydroxybenzamido)-3,3-dimethylbutanoyl)-4-hydroxy-N-(4-(4-methylthiazol-5-yl)benzyl)pyrrolidine-2-carboxamide by Western blot based Combinatorial Ubiquitination Real-time PROteolysis analysis.

For experiment [14] the target is unchanged. The experiment can be described thus: PROTAC activity at VHL/BRD4 in HEK293 cells assessed as induction of BRD4 degradation by measuring degradation rate at 3 uM measured every 15 mins for 24 hrs in presence of VHL based ligand (2S,4R)-1-((S)-2-(2,3-dihydroxybenzamido)-3,3-dimethylbutanoyl)-4-hydroxy-N-(4-(4-methylthiazol-5-yl)benzyl)pyrrolidine-2-carboxamide by HiBiT based Combinatorial Ubiquitination Real-time PROteolysis analysis.

The target in experiment [15] is T2, Protein cereblon/Bromodomain-containing protein 4 (Homo sapiens). The experiment can be described thus: PROTAC activity at BRD4/CRBN in human HeLa cells assessed as induction of BRD4 degradation at 10 uM incubated for 24 hrs in presence of CRBN based ligand (1S,4R,5R,6S)-N-((2-(2,6-dioxopiperidin-3-yl)-1,3-dioxoisoindolin-4-yl)methyl)-5,6-dihydroxybicyclo[2.2.1]heptane-2-carboxamide by Western blot analysis based Combinatorial Ubiquitination Real-time PROteolysis analysis.

T1 sequence (P40337 whole entry, looked up, other chains not shown): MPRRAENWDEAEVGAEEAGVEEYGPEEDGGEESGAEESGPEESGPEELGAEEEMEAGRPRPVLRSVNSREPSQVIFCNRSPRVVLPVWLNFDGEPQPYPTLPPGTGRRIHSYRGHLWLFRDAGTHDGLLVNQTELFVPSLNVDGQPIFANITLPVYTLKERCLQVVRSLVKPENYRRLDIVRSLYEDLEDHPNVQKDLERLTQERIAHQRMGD

In the case of `Cc1ncsc1-c1ccc(CNC(=O)[C@@H]2C[C@@H](O)CN2C(=O)[C@@H](NC(=O)c2cccc(O)c2O)C(C)(C)C)cc1`, the Activity in experiment [1] was 101%; in [3], 100%; in experiment [4], 96%; in experiment [5] it was 16%. Moreover, the outcome in [2] was Active. Further, the Tmax in experiment [6] came to 18 h.
For the molecule `CCNC(=O)C[C@@H]1N=C(c2ccc(Cl)cc2)c2cc(B(O)O)ccc2-n2c(C)nnc21`, the outcome in experiment [7] and in experiment [15] was inactive. In [8], the Tmax was found to be 7.75 h. In addition, the Activity in experiment [9] was 95%; in experiment [10] it was 55%; in experiment [11], 37%; in [12], 96%; in [13] it was 91%; in experiment [14], 0.908 h⁻¹.
